From patent publication US20240122180A1, “FUNGICIDAL HALOMETHYL KETONES AND HYDRATES AND THEIR MIXTURES” (FMC Corporation, priority 2020, published 2024)

Tests used:
[1] = tested on: Phakopsora pachyrhizi (the causal agent of Asian soybean rust); assay: Test A: preventive spray on soybean seedlings, visual disease rating (100 = 100% control; * 50 ppm, ** 10 ppm, *** 250 ppm); assay type: in vivo; settings: 100 = 100% disease control
Description: (§1) General protocol for preparing test suspensions for Tests A-E: the test compounds were first dissolved in acetone in an amount equal to 3% of the final volume and then suspended at the desired concentration (in ppm) in acetone and purified water (50/50 mix by volume) containing 250 ppm of the surfactant […] (polyhydric alcohol esters). The resulting test suspensions were then used in Tests A-E.
(§2) The test solution was sprayed to the point of run-off on soybean seedlings. The following day the seedlings were inoculated with a spore suspension of Phakopsora pachyrhizi (the causal agent of Asian soybean rust) and incubated in a saturated atmosphere at 22° C. for 24 h, and then moved to a growth chamber at 22° C. for 8 days, after which time visual disease ratings were made.
(§3) Results for Tests A-E are given in Table A. In the Table, a rating of 100 indicates 100% disease control and a rating of 0 indicates no disease control (relative to the controls). An asterisk “*” or a double asterisk “**” or a triple asterisk “***” next to the rating value indicates a 50 ppm, 10 ppm and 250 ppm test suspension was used, respectively. A dash (-) indicates the compound was not tested.

[2] = tested on: Puccinia recondita f. sp. tritici (the causal agent of wheat leaf rust); assay: Test B: preventive spray on wheat seedlings, disease rating (100 = 100% control; * 50 ppm, ** 10 ppm, *** 250 ppm); assay type: in vivo; settings: 100 = 100% disease control; for pest or weed control at 10 ppm: Puccinia recondita
Description: as §1
as §2, with “wheat” for “soybean”, “Puccinia recondita f. sp. tritici” for “Phakopsora pachyrhizi”, “wheat leaf” for “Asian soybean”, “20°” for “22°”, “6” for “8”, “time” for “time visual”
as §3

[3] = 10 ppm test suspension, soybean seedlings
[4] = 10 ppm test suspension, wheat seedlings
[5] = 10 ppm test suspension, 0 = no control
[6] = 50 ppm test suspension, soybean seedlings
[7] = 50 ppm test suspension, wheat seedlings
[8] = 50 ppm test suspension, 0 = no control

Compound	Test A disease control rating [1, 3] [%]	Test B disease control rating [2, 4] [%]	other results
CCOC(=O)c1cnn(C(C)c2ccc(OCC3(C(F)(F)F)OCCO3)cc2)c1 (racemic) [compound 26]	99	0	–
O=C(NCC(F)(F)F)c1csc(Cc2ccc(OCC(O)(O)C(F)(F)F)cc2)n1 [Compound 68]	100	95	–
O=C(NCC1CC1)c1csc(Cc2ccc(OCC(O)(O)C(F)(F)F)cc2)n1 [Compound 69]	98	96	–
CCOC(=O)c1csc(Cc2ccc(OCC(O)(O)C(F)(F)F)cc2)n1 [Compound 136]	98	83	–
COCCNC(=O)c1csc(Cc2ccc(OCC(O)(O)C(F)(F)F)cc2)n1 [Compound 223]	75	0	–
CCOC(=O)c1cnn(COc2ccc(OCC(O)(O)C(F)(F)F)cc2)c1 [Compound 366, ethyl 1-[[4-(3,3,3-trifluoro-2,2-dihydroxypropoxy)phenoxy]methyl]-1H-pyrazole-4-carboxylate]	–	–	pest or weed control at 10 ppm ([1]; Phakopsora pachyrhizi, 10 ppm test suspension, 0 = no control): 79%; pest or weed control at 10 ppm [2, 5]: 55%
CCOC(=O)c1cnn(Cc2ccc(OCC(O)(NO)C(F)(F)F)cc2)c1 (stereo not shown) [compound 10]	100	86	–
COC(=O)c1cnn(Cc2ccc(OCC3(C(F)(F)F)OCCO3)cc2)c1 [compound 13]	99	0	–
CC(C)OC(=O)c1cnn(Cc2ccc(OCC3(C(F)(F)F)OCCO3)cc2)c1 [compound 14]	100	0	–
C#CCOC(=O)c1cnn(Cc2ccc(OCC3(C(F)(F)F)OCCO3)cc2)c1 [compound 15]	100	0	–
CCCCCCOC(=O)c1cnn(Cc2ccc(OCC3(C(F)(F)F)OCCO3)cc2)c1 [compound 16]	99	0	–
O=C(OCc1ccc(Cl)c(Cl)c1)c1cnn(Cc2ccc(OCC3(C(F)(F)F)OCCO3)cc2)c1 [compound 17]	100	0	–
O=C(OCc1ccc(F)c(F)c1)c1cnn(Cc2ccc(OCC3(C(F)(F)F)OCCO3)cc2)c1 [compound 18]	100	0	–
CCOC(=O)c1cnn(Cc2ccc(OCC3(C(F)(F)F)OC(=O)CS3)cc2)c1 (stereo not shown) [compound 20]	98	86	–
CCOC(=O)c1cnn(Cc2ccc(OCC3(C(F)(F)F)NCCO3)cc2)c1 (stereo not shown) [compound 21]	84	23	–
CN(C)C(=O)C1=NOC(c2ccc(OCC3(C(F)(F)F)OCCO3)cc2)C1 (stereo not shown) [compound 22]	38	0	–
CCS(=O)(=O)Cc1ccc(OCC2(C(F)(F)F)OCCO2)cc1 [compound 23]	0	19	–
CS(=O)(=O)c1ccc(OCC2(C(F)(F)F)OCCO2)cc1 [compound 24]	81	91	–
CN(C)S(=O)(=O)c1ccc(OCC2(C(F)(F)F)OCCO2)cc1 [compound 25]	0	0	–
COC(=O)NN=Cc1ccc(OCC2(C(F)(F)F)OCCO2)cc1 [compound 27]	0	0	–
FC(F)(F)C1(COc2ccc(OCC3(C(F)(F)F)OCCO3)cc2)OCCO1 [compound 28]	0	0	–
OC(O)(CCc1ccc(Cn2ccc3ccccc32)cc1)C(F)(F)F [compound 30]	0	0	–
CS(=O)(=O)c1ccc(OCC(O)(O)C(F)(F)F)cc1 [compound 31]	44	93	–
COC(=O)NN=Cc1ccc(OCC(O)(O)C(F)(F)F)cc1 [compound 33]	96	86	–
CN(C)S(=O)(=O)c1ccc(OCC(O)(O)C(F)(F)F)cc1 [compound 34]	0	80	–
CCOC(=O)c1cnn(C(C)c2ccc(OCC(O)(O)C(F)(F)F)cc2)c1 (stereo not shown) [compound 35]	99	32	–

Compound	Test A disease control rating [1, 3] [%]	Test B disease control rating [2, 4] [%]	other results
O=C(NCC1CC1)c1cnn(Cc2ccc(OCC(O)(O)C(F)(F)F)cc2)c1 [compound 36]	70	0	–
COC(=O)c1cnn(Cc2ccc(OCC(O)(O)C(F)(F)F)cc2)c1 [compound 37]	99	86	–
C=CC(F)(F)OC(=O)c1cnn(Cc2ccc(OCC(O)(O)C(F)(F)F)cc2)c1 [compound 38]	97	89	–
CC(C)OC(=O)c1cnn(Cc2ccc(OCC(O)(O)C(F)(F)F)cc2)c1 [compound 39]	91	79	–
C=C(C)COC(=O)c1cnn(Cc2ccc(OCC(O)(O)C(F)(F)F)cc2)c1 [compound 40]	91	68	–
CN(C)C(=O)C1=NOC(c2ccc(OCC(O)(O)C(F)(F)F)cc2)C1 (stereo not shown) [compound 41]	92	23	–
CCCOC(=O)c1cnn(Cc2ccc(OCC(O)(O)C(F)(F)F)cc2)c1 [compound 42]	99	85	–
C=CCOC(=O)c1cnn(Cc2ccc(OCC(O)(O)C(F)(F)F)cc2)c1 [compound 43]	96	60	–
O=C(OCC(F)(F)F)c1cnn(Cc2ccc(OCC(O)(O)C(F)(F)F)cc2)c1 [compound 45]	87	85	–
O=C(OCC(F)(F)C(F)(F)F)c1cnn(Cc2ccc(OCC(O)(O)C(F)(F)F)cc2)c1 [compound 46]	64	85	–
O=C(OCc1ccccc1)c1cnn(Cc2ccc(OCC(O)(O)C(F)(F)F)cc2)c1 [compound 47]	–	–	Test A disease control rating [1, 6]: 100%; Test B disease control rating [2, 7]: 95%
CCCCCCOC(=O)c1cnn(Cc2ccc(OCC(O)(O)C(F)(F)F)cc2)c1 [compound 48]	–	–	Test A disease control rating [1, 6]: 100%; Test B disease control rating [2, 7]: 91%
O=C(OCc1ccc(Cl)c(Cl)c1)c1cnn(Cc2ccc(OCC(O)(O)C(F)(F)F)cc2)c1 [compound 49]	0	86	–
O=C(OCc1ccc(F)c(F)c1)c1cnn(Cc2ccc(OCC(O)(O)C(F)(F)F)cc2)c1 [compound 50]	54	91	–
CCOC(=O)c1cnn(Cc2ccc(OCC3(C(F)(F)F)OCCCO3)cc2)c1 [compound 52]	99	0	–
CCOC(=O)c1cnn(Cc2ccc(O/C=C(\OC)C(F)(F)F)cc2)c1 [compound 53]	–	–	Test A disease control rating [1, 6]: 100%; Test B disease control rating [2, 7]: 67%
CCOC(=O)c1cnn(Cc2ccc(O/C=C(\OCCOC)C(F)(F)F)cc2)c1 [compound 54]	0	0	–
C=CCO/C(=C\Oc1ccc(Cn2cc(C(=O)OCC)cn2)cc1)C(F)(F)F [compound 55]	0	0	–
C#CCO/C(=C\Oc1ccc(Cn2cc(C(=O)OCC)cn2)cc1)C(F)(F)F [compound 56]	38	0	–
CCO/C(=C\Oc1ccc(S(C)(=O)=O)cc1)C(F)(F)F [compound 60]	0	0	–
CCO/C(=C\Oc1ccc(S(=O)(=O)N(C)C)cc1)C(F)(F)F [compound 61]	0	0	–
CCO/C(=C\Oc1ccc(CS(=O)(=O)CC)cc1)C(F)(F)F [compound 62]	0	0	–
O=[N+]([O-])c1cccc(OCC2(C(F)(F)F)OCCO2)c1 [compound 165]	–	–	pest or weed control at 10 ppm [2, 4]: 0%
O=Cc1cccc(OCC(O)(O)C(F)(F)F)c1 [compound 305]	–	–	pest or weed control at 10 ppm [2, 5]: 0%
CCO/C(=C\Oc1cccc(Cn2cc(C(=O)NC3CCCC3)cn2)c1)C(F)(F)F [compound 390]	–	–	Test A disease control rating [1, 8]: 0%
CCO/C(=C\Oc1cccc(Cn2cc(C(=O)NC3CC3)cn2)c1)C(F)(F)F [compound 391]	–	–	Test A disease control rating [1, 8]: 0%
